From patent US5187160A, “Cephem compound” (Fujisawa Pharmaceutical Co., Ltd., priority 1989, dated 1993)
Structures can show the parent of a compound that is named as a salt.

Test system: P. aeruginosa 26
Assay: In vitro antibacterial activity, two-fold agar-plate dilution method (MIC)
Format: cell-based
Details: Pseudomonas aeruginosa, heart infusion agar, 10^8 viable cells per ml, 37° C. for 20 hours, read-out: MIC (minimal inhibitory concentration)
Protocol: Now in order to show the utility of the object compound [I], the test data on MIC (minimal inhibitory concentration) of representative compound [I] of this invention is shown in the following.
In vitro antibacterial activity was determined by the two-fold agar-plate dilution method as described below.
One loopful of an overnight culture of each test strain in Trypticase-soy broth (10^8 viable cells per ml) was streaked on heart infusion agar (HI-agar) containing graded concentrations of representative test compound, and the minimal inhibitory concentration (MIC) was expressed in terms of μg/ml after incubation at 37° C. for 20 hours.

Work on CCON=C(C(=O)NC1C(=O)N2C(C(=O)[O-])=C(C[n+]3ccc(N)n3CCO)CSC12)c1csc(N)n1 (stereo not drawn) [Example 2, Sulfuric acid salt of 7β-[2-(2-aminothiazol-4-yl)-2-ethoxyiminoacetamido]-3-[3-amino-2-(2-hydroxyethyl)-1-pyrazolio]methyl-3-cephem-4-carboxylate (syn isomer)] yielded an MIC of 1.56 µg/mL.
